Laboratory results taken from patent US8927717B1, “Thiochromeno[2,3-c]quinolin-12-one derivatives, preparation method and application thereof” (National Defense Medical Center, priority 2014, dated 2015).

Legend:
[1] = tested on: 60 cancer cell lines; experiment: NCI 60-cell screen, SRB, whole panel (mean, delta, range); type: cell-based; conditions: 10^−5 molar, 48 hours, SRB; for Growth percent, Delta: delta over the cell panel; for Growth percent, Range: range over the cell panel
[2] = tested on: HOP-62; type: cell-based; conditions: Non-small cell lung cancer; 10^−5 molar; 48 hours; SRB

Row | Compound | Growth percent, Delta [1] | Growth percent, Range [1] | melting point | Growth percent HOP-62 [2]
1 | O=C(O)c1c(Sc2ccc(Cl)cc2)c(O)nc2ccccc12 [Compound 2, 3-((4-Chlorophenyl)thio)-2-hydroxyquinoline-4-carboxylic acid] | 33.20% | 55.29% | 306 to 308 °C | –
2 | O=c1c2cc(Cl)ccc2sc2c(O)nc3ccccc3c12 [Compound 4, 10-Chloro-6-hydroxy-12H-thiochromeno[2,3-c]quinolin-12-one] | 30.54% | 50.31% | > 410 °C | –
3 | COc1nc2ccccc2c2c(=O)c3cc(Cl)ccc3sc12 [Compound 5, 10-Chloro-6-methoxy-12H-thiochromeno[2,3-c]quinolin-12-one] | 39.82% | 61.02% | 227 to 228 °C | 96.64%
4 | CN(C)c1nc2ccccc2c2c(=O)c3cc(Cl)ccc3sc12 [Compound 6, 10-Chloro-6-dimethylamino-12H-thiochromeno[2,3-c]quinolin-12-one] | 65.30% | 93.93% | 194 to 195 °C | –
5 | CN1CCN(c2nc3ccccc3c3c(=O)c4cc(Cl)ccc4sc23)CC1 [Compound 8, 10-Chloro-6-(4-methylpiperazin-1-yl)-12H-thiochromeno[2,3-c]quinolin-12-one] | 68.64% | 92.74% | 212 to 214 °C | –
6 | CCN1CCN(c2nc3ccccc3c3c(=O)c4cc(Cl)ccc4sc23)CC1 [Compound 9, 10-Chloro-6-(4-ethylpiperazin-1-yl)-12H-thiochromeno[2,3-c]quinolin-12-one] | – | – | 196 to 198 °C | –
7 | O=c1c2cc(Cl)ccc2sc2c(N3CCN(CCO)CC3)nc3ccccc3c12 [Compound 10, 10-Chloro-6-(4-(2-hydroxyethyl)piperazin-1-yl)-12H-thiochromeno[2,3-c]quinolin-12one] | 48.59% | 83.73% | 211 to 213 °C | –
8 | O=c1c2cc(Cl)ccc2sc2c(N3CCN(c4ccccc4)CC3)nc3ccccc3c12 [Compound 12, 10-Chloro-6-(4-phenylpiperazin-1-yl)-12H-thiochromeno[2,3-c]quinolin-12-one] | 35.45% | 60.10% | 236 to 237 °C | –
9 | O=c1c2cc(Cl)ccc2sc2c(N3CCOCC3)nc3ccccc3c12 [Compound 13, 10-Chloro-6-morpholino-12H-thiochromeno[2,3-c]quinolin-12-one] | 50.85% | 79.17% | 217 to 218 °C | –
10 | O=c1c2cc(Cl)ccc2sc2c(N3CCSCC3)nc3ccccc3c12 [Compound 14, 10-Chloro-6-thiomorpholino-12H-thiochromeno[2,3-c]quinolin-12-one] | – | – | 219 to 220 °C | –
11 | O=c1c2cc(Cl)ccc2sc2c(N3CCCCC3)nc3ccccc3c12 [Compound 15, 10-Chloro-6-(piperidin-1-yl)-12H-thiochromeno[2,3-c]quinolin-12-one] | – | – | 187 to 188 °C | –
12 | O=c1c2cc(Cl)ccc2sc2c(N3CCC(O)CC3)nc3ccccc3c12 [Compound 16, 10-Chloro-6-(4-hydroxypiperidin-1-yl)-12H-thiochromeno[2,3-c]quinolin-12-one] | – | – | 224 to 225 °C | –
13 | O=c1c2cc(Cl)ccc2sc2c(N3CCC(Cc4ccccc4)CC3)nc3ccccc3c12 [Compound 17, 6-(4-Benzylpiperidin-1-yl)-10-chloro-12H-thiochromeno[2,3-c]quinolin-12-one] | – | – | 184 to 185 °C | –
14 | O=c1c2cc(Cl)ccc2sc2c(N3CCC(N4CCCCC4)CC3)nc3ccccc3c12 [Compound 18, 6-([1,4′-Bipiperidin]-1′-yl)-10-chloro-12H-thiochromeno[2,3-c]quinolin-12-one] | – | – | 187 to 189 °C | –
15 | O=c1c2cc(Cl)ccc2sc2c(N3CCC(CCCC4CCNCC4)CC3)nc3ccccc3c12 [Compound 19, 10-Chloro-6-(4-(3-(piperidin-4-yl)propyl)piperidin-1-yl)-12H-thiochromeno[2,3-c]quinolin-12-one] | – | – | 164 to 165 °C | –
16 | O=c1c2cc(Cl)ccc2sc2c(N3CCCC3)nc3ccccc3c12 [Compound 20, 10-Chloro-6-(pyrrolidin-1-yl)-12H-thiochromeno[2,3-c]quinolin-12-one] | – | – | 170 to 171 °C | –
17 | O=C1CCCCN1c1nc2ccccc2c2c(=O)c3cc(Cl)ccc3sc12 [Compound 21, 10-chloro-6-(2-oxopiperidin-1-yl)-12H-thiochromeno[2,3-c]quinolin-12-one] | – | – | 258 to 261 °C | –
18 | CCCNc1nc2ccccc2c2c(=O)c3cc(Cl)ccc3sc12 [Compound N3, 10-Chloro-6-propylamino-12H-thiochromeno[2,3-c]quinolin-12-one] | – | – | 178 to 179 °C | –
19 | CCCCNc1nc2ccccc2c2c(=O)c3cc(Cl)ccc3sc12 [Compound N4, 6-(Butylamino)-10-chloro-12H-thiochromeno[2,3-c]quinolin-12-one] | – | – | 147 to 149 °C | –
20 | CC(C)CNc1nc2ccccc2c2c(=O)c3cc(Cl)ccc3sc12 [Compound N5, 10-Chloro-6-isobutylamino-12H-thiochromeno[2,3-c]quinolin-12-one] | – | – | 159 to 160 °C | –
21 | O=c1c2cc(Cl)ccc2sc2c(NC3Cc4ccccc4C3)nc3ccccc3c12 [Compound N20, 10-Chloro-6-((2,3-dihydro-1H-inden-2-yl)amino)-12H-thiochromeno[2,3-c]quinolin-12-one] | – | – | 251 to 252 °C | –
22 | O=c1c2cc(Cl)ccc2sc2c(NC3CCN(Cc4ccccc4)CC3)nc3ccccc3c12 [Compound N22, 6-((1-Benzylpiperidin-4-yl)amino)-10-chloro-12H-thiochromeno[2,3-c]quinolin-12-one] | – | – | 194 to 196 °C | –
23 | O=c1c2cc(Cl)ccc2sc2c(NCc3cccs3)nc3ccccc3c12 [Compound N23, 10-Chloro-6-((thiophen-2-ylmethyl)amino)-12H-thiochromeno[2,3-c]quinolin-12-one] | – | – | 178 to 180 °C | –
24 | O=c1c2cc(Cl)ccc2sc2c(NCC3CCCCC3)nc3ccccc3c12 [Compound N24, 10-Chloro-6-((cyclohexylmethyl)amino)-12H-thiochromeno[2,3-c]quinolin-12-one] | – | – | 165 to 166 °C | –
25 | O=c1c2cc(Cl)ccc2sc2c(NCc3ccccn3)nc3ccccc3c12 [Compound N26, 10-Chloro-6-((pyridin-2-ylmethyl)amino)-12H-thiochromeno[2,3-c]quinolin-12-one] | – | – | 187 to 189 °C | –
26 | COc1ccccc1CNc1nc2ccccc2c2c(=O)c3cc(Cl)ccc3sc12 [Compound N28, 10-Chloro-6-((2-methoxybenzyl)amino)-12H-thiochromeno[2,3-c]quinolin-12-one] | – | – | 223 to 224 °C | –
27 | COc1ccc(CNc2nc3ccccc3c3c(=O)c4cc(Cl)ccc4sc23)cc1OC [Compound N29, 10-Chloro-6-((3,4-dimethoxybenzyl)amino)-12H-thiochromeno[2,3-c]quinolin-12-one] | – | – | 251 to 252 °C | –
28 | NC(N)=Nc1nc2ccccc2c2c(=O)c3cc(Cl)ccc3sc12 [Compound N33, 2-(10-Chloro-12-oxo-12H-thiochromeno[2,3-c]quinolin-6-yl)guanidine] | – | – | 370 °C (dec.) | –
29 | O=c1c2cc(Cl)ccc2sc2c(NN3CCCCC3)nc3ccccc3c12 [Compound N34, 10-Chloro-6-(piperidin-1-ylamino)-12H-thiochromeno[2,3-c]quinolin-12-one] | – | – | 180 to 181 °C | –
